Measured values from patent publication US10052304B2, “Compositions and methods for cancer therapy” (UNIVERSITY OF IOWA RESEARCH FOUNDATION, priority 2015, dated 2018).

What was measured:
cancer cells = settings: following exposure
NCI-H292 cells = assay: Clonogenic survival assay, NCI-H292 NSCLC cells; type: cell-based, human; settings: for effect of the intracellular agent on ascorbate toxicity (clonogenic survival): 3 h pre-incubation, washed prior to ascorbate ('intracellular'), 200 μM DFO/1 mM DTPA, 1 mM EDTA or 250 μM FAS; for effect of the agent on ascorbate toxicity (clonogenic survival): agent added before and/or during 1 h ascorbate exposure
Experimental: (§1) Treatment conditions for individual experiments are as described in the figure legends and summarized in the Supplemental Experimental Procedures.
(§2) 1-2×10^5 cells were plated in 60 mm cell culture dishes and grown in their respective media for 48 h before exposed to experimental conditions. […] For AdGPx1 experiments, cells were supplemented with 50 nM sodium selenite following transduction and throughout clonogenic growth. […] After treatment, cells were washed with PBS and clonogenic assay was completed in their respective media. Briefly, floating and attached cells were collected and total cells per plate were counted. An experimentally derived number of cells were plated into each well of a 6-well cell culture plate in their respective media. For HEL92.1.7 suspension cells, cells were seeded in a top layer of 0.4% (w/v) agarose to allow for quantifiable colony formation. […] Normalized survival fractions were calculated by comparing plating efficiencies of each treatment group against the control group within a given experiment.

[1] = system: human non-small cell lung cancer cells; assay: Clonogenic cell killing of lung cancer cells by ascorbate with chelators (cell line not given); type: cell-based
NHAs = assay: Cellular labile iron pool (Calcein-AM flow cytometry), NHAs; type: cell-based, human; settings: 100 μM or 250 μM FAS for 3 h
Experimental: The labile iron pool (LIP) was visualized using the fluorescent dye Calcein-AM as previously described (Epsztejn et al., 1997) with modifications. After labeling, samples were divided into two flow cytometry sample tubes, to which 100 μM 2′,2′-bipyridyl (BIP) was added to one tube and analyzed by flow cytometry. BIP tubes were incubated for at least 15 minutes before analysis to allow for full chelation of intracellular labile iron. The LIP (A.U.)=MFIBIP−MFINoBIP was normalized against the control samples to calculate the relative labile iron pool.
The labile iron pool (LIP) was visualized using the fluorescent dye Calcein-AM as previously described with modifications (Epsztejn et al., 1997). Briefly, after sample treatment, cells were trypsinized, spun at 1,200 rpm for 5 min, and resuspended at approximately 1×10^6 cells mL-1 in 500 nM Calcein-AM in PBS. Samples were incubated for 15 min at 4% O2 in a humidity controlled environment (37° C., 5% CO2). Subsequently, samples were pelleted, washed in PBS, and resuspended in 1 mL PBS before dividing each sample into two flow cytometry sample tubes, to which 100 μM 2′,2′-bipyridyl (BIP) was added to one tube. Samples were kept at room temperature and analyzed on a LSR II Flow Cytometer (BD Biosciences; λex=488 nm, λem=515/20 nm). […]

NHA = settings: FAS 3 h, washed, then ascorbate 1 h
Experimental: After treatment, cells were washed with PBS and clonogenic assay was completed in their respective media as previously described (Fath et al., 2011). Treatment conditions for individual experiments are as described in the figure legends and summarized in the Supplemental Experimental Procedures.
as §2, with “formation. After sufficient time (7-12 days, cell type-dependent), cells were fixed in 70% ethanol and stained with a Brilliant Blue methanol solution.” for “formation.”

H1299 cells = assay: Clonogenic survival assay, H1299 NSCLC cells; type: cell-based, human; settings: agent added before and/or during 1 h ascorbate exposure
Experimental: as §1, §2

U118 cells = assay: Clonogenic survival assay, U118 GBM cells; type: cell-based, human; settings: agent added before and/or during 1 h ascorbate exposure
Experimental: as §1, §2

U87 cells = assay: Clonogenic survival assay, U87 GBM cells; type: cell-based, human; settings: agent added before and/or during 1 h ascorbate exposure
Experimental: as §1, §2

With `O=C(O)CN(CCN(CC(=O)O)CC(=O)O)CC(=O)O` [EDTA, ethylenediaminetetraacetic acid] the “cellular retention of 14C labeled EDTA” value (cancer cells) was “retained with cancer cells following exposure”, the “effect of the intracellular agent on ascorbate toxicity (clonogenic survival)” value (NCI-H292 cells) was “enhanced ascorbate toxicity” and the “effect of EDTA on cytotoxicity of pharmacological ascorbate” value ([1]; EDTA 1 mM and greater, cell culture) was “significantly enhance the cytotoxicity of pharmacological ascorbate”. The “enhanced ascorbate toxicity after EDTA pretreatment and wash-out” value ([1]; EDTA pretreatment followed by washing out) was “sufficient to get enhanced toxicity”, the clonogenic cell survival ([1]; high dose EDTA + pharmacological ascorbate + standard-of-care chemotherapy vs standard of care alone, two NSCLC cell lines) was “decreases clonogenic cell survival” and the “effect of iron chelators on ascorbate toxicity / response to therapy (FIG. 8)” value ([1]; lung cancer cells treated with ascorbate and iron chelators) was “enhance responses to cancer therapy”.

With `O=S(=O)([O-])[O-].O=S(=O)([O-])[O-].[Fe+2].[NH4+].[NH4+]` [FAS, ferrous ammonium sulfate] the “cellular LIP after FAS” value (NHAs) was “increases the LIP”, the “effect of the intracellular agent on ascorbate toxicity (clonogenic survival)” value (NCI-H292 cells) was “sensitized cancer cells to ascorbate” and the “effect of the agent on ascorbate toxicity (clonogenic survival)” value (“effect of the agent” for short) (NHA) was “sensitizes NHAs to ascorbate toxicity”.

In the case of `O=CC[C@@H](O)[C@H](O)[C@H](O)CO` [2-DG, 2-deoxy-D-glucose], the “effect of the agent” value (H1299 cells) is reported as “did not suppress ascorbate toxicity” and the “effect of the agent” value (NCI-H292 cells) is reported as “did not suppress ascorbate toxicity”.

B1: PEG-catalase: polyethylene glycol conjugated catalase which converts H2O2 into H2O and O2 (conjugate, UniProt P00432 2-527, looked up)
Catalase: ADNRDPASDQMKHWKEQRAAQKPDVLTTGGGNPVGDKLNSLTVGPRGPLLVQDVVFTDEMAHFDRERIPERVVHAKGAGAFGYFEVTHDITRYSKAKVFEHIGKRTPIAVRFSTVAGESGSADTVRDPRGFAVKFYTEDGNWDLVGNNTPIFFIRDALLFPSFIHSQKRNPQTHLKDPDMVWDFWSLRPESLHQVSFLFSDRGIPDGHRHMNGYGSHTFKLVNANGEAVYCKFHYKTDQGIKNLSVEDAARLAHEDPDYGLRDLFNAIATGNYPSWTLYIQVMTFSEAEIFPFNPFDLTKVWPHGDYPLIPVGKLVLNRNPVNYFAEVEQLAFDPSNMPPGIEPSPDKMLQGRLFAYPDTHRHRLGPNYLQIPVNCPYRARVANYQRDGPMCMMDNQGGAPNYYPNSFSAPEHQPSALEHRTHFSGDVQRFNSANDDNVTQVRTFYLKVLNEEQRKRLCENIAGHLKDAQLFIQKKAVKNFSDVHPEYGSRIQALLDKYNEEKPKNAVHTYVQHGSHLSAREKANL
modifications: PEG conjugate
notes: polyethylene glycol conjugated catalase which converts H2O2 into H2O and O2
In the case of B1, the “effect of the agent” value (NCI-H292 cells) is reported as “inhibited cancer cell killing by ascorbate”.

B2: catalase: exogenous bovine catalase, 50 U mL^−1, added with ascorbate (protein, UniProt P00432 2-527, looked up)
Catalase: ADNRDPASDQMKHWKEQRAAQKPDVLTTGGGNPVGDKLNSLTVGPRGPLLVQDVVFTDEMAHFDRERIPERVVHAKGAGAFGYFEVTHDITRYSKAKVFEHIGKRTPIAVRFSTVAGESGSADTVRDPRGFAVKFYTEDGNWDLVGNNTPIFFIRDALLFPSFIHSQKRNPQTHLKDPDMVWDFWSLRPESLHQVSFLFSDRGIPDGHRHMNGYGSHTFKLVNANGEAVYCKFHYKTDQGIKNLSVEDAARLAHEDPDYGLRDLFNAIATGNYPSWTLYIQVMTFSEAEIFPFNPFDLTKVWPHGDYPLIPVGKLVLNRNPVNYFAEVEQLAFDPSNMPPGIEPSPDKMLQGRLFAYPDTHRHRLGPNYLQIPVNCPYRARVANYQRDGPMCMMDNQGGAPNYYPNSFSAPEHQPSALEHRTHFSGDVQRFNSANDDNVTQVRTFYLKVLNEEQRKRLCENIAGHLKDAQLFIQKKAVKNFSDVHPEYGSRIQALLDKYNEEKPKNAVHTYVQHGSHLSAREKANL
B2 was tested, and the “effect of the agent” value (H1299 cells) was “inhibited”, the “effect of the agent” value (U118 cells) was “inhibited” and the “effect of the agent” value (NCI-H292 cells) was “inhibited”. The “effect of the agent” value (U87 cells) was “inhibited”.
